The values below come from patent US8829014B2, “Thiazole and thiophene analogues, and their use in treating autoimmune diseases and cancers” (Board of Supervisors of Louisiana State University and …, priority 2006, dated 2014).

One assay concerns carageenan-induced edema. Description: Carrageenan-induced rat paw edema test (anti-inflammatory activity). Format: in vivo, Sprague-Dawley rats. To be noted: for inhibition in vivo at 50 mg/kg: po, 3 h, carrageenan-induced rat paw edema, defined in Example 397, read-out: % Protection. In outline:
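Edema was raised by sub-plantar injection of 1% carrageenan into the right hind paw, 1 h after dosing 18 h-fasted male/female Sprague-Dawley rats (150-250 g) with 50 mg/kg p.o. in 0.1% CMC. Swelling was measured by displacement 3 h later and expressed as % protection against saline control.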
Background: The carrageenan paw model is a standard test of acute inflammation.

Another assay concerns NF-κB. Briefly: NF-κB inhibitor screen: basal NF-κB-dependent luciferase expression in HEK/NF-κB cell line. To be noted: for inhibition at 1 µM: determined as described in Example 398, read-out: NFkB inhibition @ 1 uM; for inhibition of NF-κB (summary statement): summary in the disclosure. The assay is classed as cell-based. In outline:
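Basal NF-κB-driven luciferase (six-copy element, stable HEK293 line) was read with Brite-Glo. Compound was added in 0.3% DMSO 24 h post-plating, initially at 1.0 μM and then across 10–3300 nM in six steps, in triplicate wells. Signals were expressed relative to DMSO or to the lowest concentration tested.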

In another assay the test system is AP-1. Briefly: AP-1 inhibitor screen: basal AP-1-dependent luciferase expression in HEK/AP-1 cell line. To be noted: for inhibition at 1 µM: AP1, determined as described in Example 398. Format: cell-based. In short, it runs like this:
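Compound effects on unstimulated reporter signal were tested: 1.0 μM compound (0.3% DMSO) for 48 hr on HEK cells bearing an AP-1 (TGACTAA ×3)-luciferase construct, seeded 24 hr earlier. Triplicate luminescence means were normalized to DMSO-only wells; dose-response experiments were repeated 2–4 times.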

“Also recorded” adds a separate entry of the source. Where two headings read alike, the source gives them in different places.

A word on the inhibition: it is the change of the read-out against control, counted positive when it falls.

As to `COc1ccc(-n2c(-c3sc(Nc4ccc(Cl)cc4)nc3-c3ccccc3)nc3ccccc3c2=O)cc1` [Example 225, 2-[2-(4-Chloro-phenylamino)-4-phenyl-thiazol-5-yl]-3-(4-methoxyphenyl)-3H-quinazolin-4-one], in the assay with carageenan-induced edema, the inhibition in vivo at 50 mg/kg is 80%. Also, in the assay on NF-κB, the inhibition at 1 µM was 47% and the “inhibition of NF-κB (summary statement)” value was “capable of inhibiting”. Also, testing at 1 µM in the assay on AP-1 gave an inhibition of 58%.

Take `CNc1nc(C)c(-c2nc3ccccc3c(=O)n2-c2ccc(Cl)cc2)s1` [Example 244, 2-(4-Methyl-2-methylamino-thiazol-5-yl)-3-(4-chloro-phenyl)-3H-quinazolin-4-one]: the inhibition in vivo at 50 mg/kg in the assay on carageenan-induced edema (Rattus norvegicus) amounted to 71%. Besides, the inhibition at 1 µM in the assay on NF-κB turned out to be 93%; with AP-1, 82%.

For the compound “Bis-[2-(4-Chloro-phenylamino)-4-benzayl-thiazole-5-yl]-methanone [Example 134]”, the “% Protection P” value in the assay on carageenan-induced edema (rat paw edema, 50 mg/kg, reading 3 hours after carrageenan, [(Control−Test)/Control]×100%) is reported as 75.69%. Further, the “basal NF-κB-dependent luciferase, six-point dose response” value with NF-κB (10 nM-3300 nM (FIG. 12), listed as Compound 35) is “substantial activity at submicromolar concentrations; also recorded: robust inhibition”. Also, the “inhibition of basal NF-κB-dependent luciferase expression” value with NF-κB (3.3 μM (FIG. 12)) is recorded as “about 50%”. Also, the “inhibition of NF-κB (summary statement)” value with NF-κB was “capable of inhibiting”. Also, the “basal AP-1-dependent luciferase, six-point dose response” value with AP-1 (10 nM-3300 nM (FIG. 14)) was “substantial activity at submicromolar concentrations”.
